According to publication PMC11211886 (Frontiers in Pharmacology, 2024):
Read-outs that look alike come from different tables or passages of the source.

Legend:
[1] = Single-dose PK and food effect in beagle dogs (IV/PO); set-up: species or system beagle dog; details: in vivo; for AUC(0-inf): AUC0-inf
Procedure: Twelve beagle dogs (6-10 kg, male: female = 1:1) purchased from Beijing Marshall Biotechnology Co. Ltd. (Beijing, China) were enrolled in a three-period self-control cross-over study with a washout time of 1 week. […] In Period 1 and Period 2, dogs were fasted overnight until dosing. […] Approximately 1.0 mL of blood was collected per time point from the jugular vein using a 2 mL injector and transferred to a 3 mL tube that contained sodium heparin. The collected blood samples were centrifuged at 3,500 g for 5 min at 4°C to collect plasma within 30 min after sample collection. […] Animals were fasted overnight and for approximately 4 h post-dose. […] At each time point, approximately 1.0 mL of blood was collected from the femoral vein and transferred into an individual tube that contained sodium heparin. The blood samples were centrifuged at 3,500 g for 5 min at 4°C to harvest plasma.

[2] = Tissue distribution in SD rats after oral dose; set-up: species or system SD rat; details: in vivo
Procedure: After blood collection, the rats were sacrificed, and 18 tissues, namely, brain, breast, skin, fat, testis, ovary, bladder, pancreas, skeletal muscle, heart, lung, kidney, liver, stomach, small intestine, colon, spleen, and spinal cord, were removed from the rats at designated time points. These tissues were washed with saline and dried with filter paper. […] (Cheongju-si, Korea). […] The weight of the collected samples was recorded. Samples were stored in a −20°C freezer until analysis.

[3] = Whole blood-to-plasma partition, human blood; format: in vitro ADME
Procedure: The whole blood and plasma samples were incubated at 37°C for up to 1 h. Serial samples (150 µL) were collected at different time points (0, 10, and 60 min) and transferred into new tubes. The whole blood samples were then centrifuged at 1700 g for 15 min to harvest plasma.

CYP3A4/5 = assay: Time-dependent CYP inhibition in HLM, CYP3A4/5; format: in vitro ADME, human; details: 10 μM, 30 min pre-incubation with NADPH
Procedure: The procedure of time-dependent CYP inhibition was similar to that used for CYP reversible inhibition, as mentioned above, except that a pre-incubation step was added. […] Another appropriate volume of the NADPH-regenerating system and probe substrate were added to initiate the CYP isoform enzyme activity test step. For this step, the incubation period was 10 min, except for CYP2B6, CYP2C8, and CYP3A4/5 (probe substrate: midazolam), which was 3 min to make sure the reaction was under initial linear rates. After incubation for the designated time periods at 37°C, the ice-cold acetonitrile containing IS was added to quench the reaction. […] (Ainactivator/[…] represents the enzyme activity remaining due to the inhibition by the diluted inactivator in the enzyme activity test step, and (Ainactivator/[…] represents the remaining enzyme activity due to pre-incubation loss plus inhibition by the diluted inactivator in the enzyme activity test step.

MATE2-K = MATE2-K (Homo sapiens, UniProt Q86VL8); assay: MATE2-K inhibition, tetraethylammonium uptake in transfected HEK293 cells; details: for Percentage transported / Uptake rate: MATE2-K
MATE2-K, sequence (Q86VL8 1-566 isoform Q86VL8-3): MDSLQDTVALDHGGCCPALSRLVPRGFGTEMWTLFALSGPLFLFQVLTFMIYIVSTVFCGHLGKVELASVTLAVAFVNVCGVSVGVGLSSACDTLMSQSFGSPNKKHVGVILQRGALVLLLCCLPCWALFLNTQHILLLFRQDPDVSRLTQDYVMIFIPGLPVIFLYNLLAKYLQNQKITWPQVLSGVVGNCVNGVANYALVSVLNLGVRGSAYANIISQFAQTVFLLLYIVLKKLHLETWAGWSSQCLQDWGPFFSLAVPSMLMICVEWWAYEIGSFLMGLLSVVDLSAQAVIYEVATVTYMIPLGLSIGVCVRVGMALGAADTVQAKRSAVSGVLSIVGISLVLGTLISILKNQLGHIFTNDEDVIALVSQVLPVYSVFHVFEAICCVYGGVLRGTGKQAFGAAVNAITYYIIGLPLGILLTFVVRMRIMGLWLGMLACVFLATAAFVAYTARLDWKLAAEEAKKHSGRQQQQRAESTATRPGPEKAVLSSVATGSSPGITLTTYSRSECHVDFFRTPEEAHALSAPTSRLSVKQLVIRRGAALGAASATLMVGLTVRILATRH
Procedure: The pre-incubation solutions were removed, and incubation solutions containing the inhibitors and probe substrates (or transport buffer containing an equal volume of vehicle control and probe substrates) were added and incubated at 37°C for 2 min (5 min for OATP1B3). The probe substrate for OAT1 was 4-aminohippuric acid (10 μM), for OAT3 was estrone 3-sulfate (10 μM), for OCT2 was metformin (100 μM), for OATP1B1 was β-estradiol 17-(β-D-glucuronide) (5 μM), for OATP1B3 was β-estradiol 17-(β-D-glucuronide) (10 μM), and for MATE1 and MATE2-K was tetraethylammonium (10 μM). After incubation, cells were washed three times with ice-cold transport buffer (25 mM HEPES, pH 7.4, pH 8.0 for overexpressing MATE1 and MATE2-K HEK293 cells) and lysed in distilled water. The concentrations of probe substrates were determined by LC-MS/MS, and a BCA Kit (Solarbio ®Life Sciences, Beijing, China) was used to determine the protein content in the cell lysate.
where C is the concentration of the drug in the cell lysate (nM), P is the protein concentration of the cell lysate (mg/mL), and T is the incubation time (minute). Uptake ratetest compound is the uptake rate of the substrate in the presence of the test compound. Uptake ratevehicle control is the uptake rate of the substrate in the presence of the vehicle control. Uptake ratepassive is the uptake rate of the substrate in the presence of the positive inhibitor at the top test concentration.

[4] = both sexes, beagle, dog, iv, 0.5 mg/kg
[5] = both sexes, beagle, dog, po, 0.5 mg/kg
[6] = both sexes, beagle, dog, po, 3.5 mg/kg
[7] = both sexes, beagle, dog, po, 25 mg/kg

In the case of C[C@H](Nc1ncnc(N)c1C#N)c1cc2ncc(Cl)n2nc1-c1ccccc1 [Amdizalisib], the AUC(0-t) [1, 4] is reported as 750 ± 272 ng·h/mL, the Vd [1, 4] is reported as 2.4 ± 0.354 L/kg and the AUC(0-inf) [1, 4] is reported as 772 ± 272 ng·h/mL. It also gave an MRT ([1]; both sexes, beagle, dog, iv, 0.5 mg/kg, Beagle dog, fasted, IV 0.5 mg/kg, read-out: MRT) of 3.65 ± 1.29 h, a half-life ([1]; both sexes, beagle, dog, iv, 0.5 mg/kg, Beagle dog, fasted, IV 0.5 mg/kg, read-out: t1/2 (converted)) of 3.02 ± 1.27 h and an MRT [1, 5] of 9.66 ± 6.73 h. It also gave a Tmax [1, 5] of 1.92 ± 0.665 h, a half-life [1, 5] of 7.22 ± 6.55 h and an AUC(0-inf) [1, 5] of 359 ± 259 ng·h/mL. For the same molecule, the Cmax ([1]; both sexes, beagle, dog, po, 0.5 mg/kg, Cmax) was 42.4 ± 21.8 ng/mL, the AUC(0-t) [1, 6] was 5540 ng·h/mL and the MRT [1, 6] was 13.8 ± 4.85 h. For the same molecule, the Tmax [1, 6] was 6.25 ± 9.11 h, the AUC(0-inf) [1, 6] was 5660 ng·h/mL and the half-life ([1]; both sexes, beagle, dog, po, 3.5 mg/kg, Beagle dog, fasted, PO 3.5 mg/kg, read-out: t1/2 (converted)) was 6.08 ± 1.48 h. For the same molecule, the AUC(0-t) [1, 7] was 66500 ng·h/mL, the AUC(0-inf) [1, 7] was 72800 ng·h/mL and the MRT ([1]; both sexes, beagle, dog, po, 25 mg/kg, Beagle dog, fasted, PO 25 mg/kg, read-out: MRT) was 31.8 ± 10.2 h. For the same molecule, the Tmax ([1]; both sexes, beagle, dog, po, 25 mg/kg, Beagle dog, fasted, PO 25 mg/kg, read-out: Tmax) was 15 ± 10.4 h, the half-life ([1]; both sexes, beagle, dog, po, 25 mg/kg, Beagle dog, fasted, PO 25 mg/kg, read-out: t1/2 (converted)) was 13.9 ± 5.07 h and the Tmax ([1]; both sexes, beagle, dog, po, 25 mg/kg, Beagle dog, fed, PO 25 mg/kg, read-out: Tmax) was 7 ± 8.34 h. It also gave a half-life ([1]; both sexes, beagle, dog, po, 25 mg/kg, Beagle dog, fed, PO 25 mg/kg, read-out: t1/2 (converted)) of 17.4 ± 2.49 h, a clearance ([1]; both sexes, Beagle dog, fasted, IV 0.5 mg/kg) of 11.8 ± 3.61 mL/min/kg and a Cmax ([1]; both sexes, Beagle dog, fasted, PO 3.5 mg/kg, read-out: Cmax) of 347 ± 105 ng/mL. For the same molecule, the “CL as % of the hepatic blood flow” value ([1]; both, beagle, dog, iv) was 38.1%, the Cmax ([1]; both, beagle, dog, po, 25 mg/kg) was 2,159 ± 1,070 ng/mL and the half-life ([2]; SD, female rat, PO 5 mg/kg, pancreas) was 3.38 h. The half-life ([2]; SD, male rat, PO 5 mg/kg, liver) was 1.76 h, the Kp ([2]; both sexes, SD, rat, po, 5 mg/kg, exposure in the intestines versus plasma) was 3 to 6 and the AUC(0-t) ([2]; female, SD, rat, po, 5 mg/kg) was 11400 ng·h/mL. For the same molecule, the Cmax ([2]; female, SD, rat, po, 5 mg/kg) was 993 ng/mL, the Kp ([2]; female, SD, rat, po, 5 mg/kg, female rat, PO 5 mg/kg, colon, read-out: AUC0-t ratio of tissue/plasma) was 1.52 and the Cmax ([2]; female, Sprague-Dawley, rat, po, 5 mg/kg) was 6950 ng/g. For the same molecule, the AUC(0-t) ([2]; male, SD, rat, po, 5 mg/kg) was 1380 ng·h/mL, the Cmax ([2]; male, SD, rat, po, 5 mg/kg) was 394 ng/mL and the Tmax ([2]; male, SD, rat, po, 5 mg/kg, Tmax) was 1 h. It also gave a Kp ([2]; male, SD, rat, po, 5 mg/kg, male rat, PO 5 mg/kg, bladder, read-out: AUC0-t ratio of tissue/plasma) of 1.08, a Kp ([2]; male, SD, rat, po, 5 mg/kg, male rat, PO 5 mg/kg, pancreas, read-out: AUC0-t ratio of tissue/plasma) of 3.97 and a Cmax ([2]; male, Sprague-Dawley, rat, po, 5 mg/kg) of 5080 ng/g. For the same molecule, the fuB ([3]; human blood, 0 min) was 11.7%, the RB ([3]; human, 0 min, 1 µM) was 0.615 and the fup ([3]; human, 1 µM) was 0.0720. For the same molecule, the RB ([3]; human, 10 min, 1 μM) was 0.680, the fuB ([3]; human, 10 min, 1 μM) was 10.6% and the RB ([3]; human, 60 min, 1 μM) was 0.797. The fuB ([3]; human, 60 min, 1 μM) was 9.02%, the “activity loss of CYP3A4/5” value (CYP3A4/5; substrate midazolam) was 16.9% and the “activity loss of CYP3A4/5” value (CYP3A4/5; substrate testosterone) was 11.7%. For the same molecule, the IC50 (MATE2-K) was 38.2 µM, the “calculated R value (MATE2-K)” value (MATE2-K) was under 1.1 and the Percentage transported (MATE2-K; compound 0.3 μM) was 87.1%. The Uptake rate (MATE2-K; compound 0.3 μM) was 125±3.49 pmol/mg protein/min, the Percentage transported (MATE2-K; compound 1 μM) was 89.9% and the Uptake rate (MATE2-K; compound 1 μM) was 129±7.96 pmol/mg protein/min. The Percentage transported (MATE2-K; compound 3 μM) was 89.0%, the Uptake rate (MATE2-K; compound 3 μM) was 127±5.50 pmol/mg protein/min and the Percentage transported (MATE2-K; compound 10 μM) was 89.6%. It also gave an Uptake rate (MATE2-K; compound 10 μM) of 128±4.89 pmol/mg protein/min, a Percentage transported (MATE2-K; compound 30 μM) of 49.3% and an Uptake rate (MATE2-K; compound 30 μM) of 73.9±6.49 pmol/mg protein/min. It also gave a Percentage transported (MATE2-K; compound 100 μM) of 29.6%, an Uptake rate (MATE2-K; compound 100 μM) of 47.4±3.61 pmol/mg protein/min and an inhibition at 2 min, 0.3 µM (MATE2-K; human, pH 8) of 12.9%. The inhibition at 2 min, 1 µM (MATE2-K; human, pH 8) was 10.1%, the inhibition at 2 min, 3 µM (MATE2-K; human, pH 8) was 11% and the inhibition at 2 min, 10 µM (MATE2-K; human, pH 8) was 10.4%. For the same molecule, the inhibition at 2 min, 30 µM (MATE2-K; human, pH 8) was 50.7% and the inhibition at 2 min, 100 µM (MATE2-K; human, pH 8) was 70.4%.
